Laboratory results taken from patent publication US20220023552A1, “KIT FOR INHALED CHEMOTHERAPY, AND TREATMENT OF LUNG CANCER WITH SAID KIT” (UNIVERSITÉ LIBRE DE BRUXELLES, priority 2018, published 2022).

Columns and labels:
[1] = geometrical particle size distribution (PSD) by laser diffraction; type: physicochemical; settings: mean ± SD, n = 3
Procedure: The geometrical PSD of bulk cisplatin, cisplatin microparticles from the size-reduction process, and cisplatin dry powder formulation, was measured as suspended and individualized particles. This was done using a Mastersizer 3000 laser diffractometer (Malvern Instruments Ltd., Worcestershire, UK) connected to a Hydro MV dispenser equipped with a 40 W ultrasonic probe (Malvern Instruments Ltd.). Measurements of bulk cisplatin and aliquots of cisplatin microparticles from the size-reduction process were performed in cisplatin-saturated isopropanol. […] The geometrical PSD of bulk cisplatin, cisplatin microparticles from the size-reduction process, and cisplatin dry powder formulation, was measured as suspended and individualized particles as described in the Example 1 and are presented in table 2.

M109-HiFR-LUC2 cells [2] = assay: ex vivo bioluminescence analysis of tumor localization (resected lungs vs chest cavity); type: in vivo, BALB/c mice; settings: Example 3 additional experiment, day 19 post engraftment
Procedure: Briefly, under anesthesia, 6 to 7-week-old BALB/c mice were grafted with 1.4 million M109-HiFR-LUC2 cells in 20 μL of a 50:50 v/v mix of folate-free RPMI/Matrigel® injected intercostally after incision of the skin and dissection of subcutaneous muscles. The different tissue incisions were stitched with a 3-0 silk (Ethicon®, St-Stevens-Woluwe, Belgium). The mice were closely observed until complete recovery. The therapeutic response of the M109 model to cisplatin was evaluated by in vivo optical imaging (bioluminescence) and survival analysis. Bioluminescence is directly proportional to the number of living M109-HiFR-LUC2 tumor cells. Bioluminescence was performed up to day 19 post tumor cell engraftment using a Photonlmager RT (Biospace Lab, France) using the conventional supplier's protocol. Mice were weighted three times a week and sacrificed if their weight loss exceeded 20% from the beginning of the experiment or 15% from the last measurement or if they were suffocating. In these cases, the mouse death was notified as occurred the day after.
An additional experiment was performed evaluating cisplatin DPI according to example 1 vs cisplatin IV on the same lung cancer mice model. […]

M109-HiFR-LUC2 cells [3] = assay: tumor growth by in vivo bioluminescence in orthotopic lung cancer mice model; design: species or system BALB/c mice; settings: Example 4; p<0.05 for combination, p>0.05 for cisplatin IV
Procedure: The orthotopic intrapulmonary implantation procedure was performed using an adaption of the protocol described previously (Wauthoz et al., Nanomedicine 2015). Briefly, under anesthesia, 6 to 7-week-old BALB/c mice were grafted with 1.4 million M109-HiFR-LUC2 cells in 20 μL of a 50:50 v/v mix of folate-free RPMI/Matrigel® injected intercostally after incision of the skin and dissection of subcutaneous muscles. The different tissue incisions were stitched with a 3-0 silk (Ethicon®, St-Stevens-Woluwe, Belgium). The mice were closely observed until complete recovery. The therapeutic response of the M109 model to cisplatin was evaluated by in vivo optical imaging (bioluminescence) and survival analysis. Bioluminescence is directly proportional to the number of living M109-HiFR-LUC2 tumor cells. […]
The protocol described in example 3 has been reproduced, except that survival rates were also determined (no euthanasia on day 19 and no ex vivo bioluminescence analysis), the treatment started on day 6 according to the scheme table 3 below and that three groups of 4-15 mice were compared: […]
The protocol described in example 3 has been reproduced, except that survival rates were also determined (no euthanasia on day 19 and no ex vivo bioluminescence analysis), the treatment started on day 3 according to the scheme table 5 below and three groups of 8-16 mice were compared: […]

[4] = Table 1, materials of Example 1
[5] = Table 2, materials of Example 2

| Structure (SMILES) | D50 (volume median diameter) [1, 4] [μm] | D[4,3] (volume mean diameter) [1, 4] [μm] | D50 (volume median diameter) [1, 5] [μm] | D[4,3] (volume mean diameter) [1, 5] [μm] | tumor growth in the chest, cisplatin IV compared with cisplatin DPI (FIG. 3) (M109-HiFR-LUC2 cells [2]; chest cavity = loco-regional metastases) | tumor growth in the lungs, cisplatin IV compared with cisplatin DPI (FIG. 3) (M109-HiFR-LUC2 cells [2]; resected lungs = primary lung tumors) | significance of the decrease in tumor growth versus untreated control (1-way ANOVA) (M109-HiFR-LUC2 cells [3]) |
| --- | --- | --- | --- | --- | --- | --- | --- |
| N.N.[Cl][Pt][Cl] [Raw cisplatin, cisplatin] | 16.5 ± 3.6 | 18.9 ± 4.3 | 6.3 ± 0.1 | 7.1 ± 0.2 |  |  |  |
| N.N.[Cl][Pt][Cl] [cisplatin IV, cisplatin] |  |  |  |  | decrease of tumor growth in the chest | similar | not |
